Usually pIC50 stands for the negative decadic logarithm of the IC50, by convention in mol/L.

The structures appear in SMILES notation. pIC50: −log10 of the molar value.

We go through 24 molecules from US10954216B2, “BMP-signal-inhibiting compound” (RIKEN, priority 2016, dated 2021).

For one assay, the system named is BMP signal in MDA-231-D-BREFluc/Rluc cells. Put plainly: BMP signal inhibitory effect (AlphaScreen SureFire SMAD1 p-Ser463/465, BMP-6 stimulation).
Settings: not given
Format: cell-based. The gist of the method: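 Read-out was phospho-SMAD1 (Ser463/465) by AlphaScreen SureFire after 30 min BMP-6 stimulation at 37° C. Before stimulation, MDA-231-D-BREFluc/Rluc cells were incubated with test compound at 37° C for 2 h.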
(In general: Alpha assays give light when donor and acceptor beads are brought close together.)
`CCn1cc(-c2ccnc(Nc3ccc(C(=O)N4CC5CCC(C4)N5C4CCCC4)cc3)n2)c(-c2cccnc2)n1` [Example 118, (8-Cyclopentyl-3,8-diazabicyclo [3.2.1]octan-3-yl) (4-((4-(1-ethyl-3-(pyridin-3-yl)-1H-pyrazol-4-yl)pyrimidin-2-yl)amino)phenyl) methanone] gave a pIC50 of 8.07.

With `CCn1cc(-c2ccnc(Nc3ccc(OC4CC5CCC(C4)N5)cc3)n2)c(-c2cccnc2)n1` (stereo not drawn) [Example 146, N-(4-((8-Azabicyclo[3.2.1]octan-3-yl)oxy)phenyl)-4-(1-ethyl-3-(pyridin-3-yl)-1H-pyrazol-4-yl)pyrimidin-2-amine], the pIC50 is 7.87.

Staying with this assay, now noted: BMP-6 stimulated MDA-231-D-BREFluc/Rluc cells, phospho-SMAD1 AlphaScreen; read-out: IC50.
As for `CCn1cc(-c2ccnc(Nc3ccc(C(=O)N4CCN(C(C)C)CC4)cc3)n2)c(-c2cccnc2)n1` [Example 119, (4-((4-(1-Ethyl-3-(pyridin-3-yl)-1H-pyrazol-4-yl)pyrimidin-2-yl)amino)phenyl) (4-isopropylpiperazin-1-yl)methanone], the negative logarithm of the IC50 (pIC50) was 8.30.

Turning to `CCn1cc(-c2ccnc(Nc3ccc(C(=O)N4CCN(C5CCCCC5)CC4)cc3)n2)c(-c2cccnc2)n1` [Example 120, (4-Cyclohexylpiperazin-1-yl) (4-((4-(1-ethyl-3-(pyridin-3-yl)-1H-pyrazol-4-yl)pyrimidin-2-yl)amino)phenyl) methanone], the pIC50 is 8.21.

Consider `CC(C)N1CCN(C(=O)c2ccc(Nc3nccc(-c4cn(Cc5ccc(F)cc5)nc4-c4cccnc4)n3)cc2)CC1` [Example 121, (4-((4-(1-(4-Fluorobenzyl)-3-(pyridin-3-yl)-1H-pyrazol-4-yl)pyrimidin-2-yl)amino)phenyl)(4-isopropylpiperazin-1-yl)methanone], for which the pIC50 was 7.71.

Turning to `CCn1cc(-c2ccnc(Nc3cccc(C(=O)N4CCN(C(C)C)CC4)c3)n2)c(-c2cccnc2)n1` [Example 122, (3-((4-(1-Ethyl-3-(pyridin-3-yl)-1H-pyrazol-4-yl)pyrimidin-2-yl)amino)phenyl)(4-isopropylpiperazin-1-yl)methanone], the pIC50 is 7.63.

As for `CC(C)N1CCN(C(=O)c2ccc(Nc3nccc(-c4cn(CCc5ccccc5)nc4-c4cccnc4)n3)cc2)CC1` [Example 123, (4-lsopropylpiperazin-1-yl) (4-((4-(1-phenethyl-3-(pyridin-3-yl)-1H-pyrazol-4-yl)pyrimidin-2-yl)amino)phenyl) methanone], the negative-log IC50 (pIC50) was 7.90.

On to `CCn1cc(-c2ccnc(Nc3ccc4c(c3)CCN(C3COC3)CC4)n2)c(-c2cccnc2)n1` [Example 125, N-(4-(1-Ethyl-3-(pyridin-3-yl)-1H-pyrazol-4-yl)pyrimidin-2-yl)-3-(oxetan-3-yl)-2,3,4,5-tetrahydro-1H-benzo [d] azepin-7-amine], for which the negative logarithm of the IC50 (pIC50) was 8.00.

In the case of `CCn1cc(-c2ccnc(Nc3cnn(C4CCN(C5COC5)CC4)c3)n2)c(-c2cccnc2)n1` [Example 128, 4-(1-Ethyl-3-(pyridin-3-yl)-1H-pyrazol-4-yl)-N-(1-(1-(oxetan-3-yl)piperidin-4-yl)-1H-pyrazol-4-yl)pyrimidin-2-amine], the pIC50 was 7.49.

In the case of `CCn1cc(-c2ccnc(Nc3ccc(N4CCN(C5CCOCC5)CC4)cc3)n2)c(-c2cccnc2)n1` [Example 130, 4-(1-Ethyl-3-(pyridin-3-yl)-1H-pyrazol-4-yl)-N-(4-(4-(tetrahydro-2H-pyran-4-yl)piperazin-1-yl)phenyl)pyrimidin-2-amine], the pIC50 is 7.91.

On to `CC(C)(O)Cn1cc(-c2ccnc(Nc3ccc4c(c3)CCN(C3COC3)C4)n2)c(-c2cccnc2)n1` [Example 131, 2-Methyl-1-(4-(2-((2-(oxetan-3-yl)-1,2,3,4-tetrahydroisoquinolin-6-yl)amino)pyrimidin-4-yl)-3-(pyridin-3-yl)-1H-pyrazol-1-yl)propan-2-ol], for which the pIC50 was 7.78.

Take `CC(C)(O)Cn1cc(-c2ccnc(Nc3ccc(C4CCN(C5COC5)CC4)cc3)n2)c(-c2cccnc2)n1` [Example 132]: the pIC50 was 7.60.

Take `CCn1cc(-c2ccnc(Nc3ccc(-c4cccnc4)cc3)n2)c(-c2cccnc2)n1` [Example 133, 4-(1-ethyl-3-(pyridin-3-yl)-1H-pyrazol-4-yl)-N-(4-(pyridin-3-yl)phenyl)pyrimidin-2-amine]: the pIC50 was 7.73.

With `CCn1cc(-c2ccnc(Nc3ccc(-c4ccncc4)cc3)n2)c(-c2cccnc2)n1` [Example 134, 4-(1-Ethyl-3-(pyridin-3-yl)-1H-pyrazol-4-yl)-N-(4-(pyridin-4-yl)phenyl)pyrimidin-2-amine], the pIC50 was 7.66.

`FC(F)(F)Cn1cc(-c2ccnc(Nc3ccc(N4CCNCC4)cc3)n2)c(-c2cccnc2)n1` [Example 136, N-(4-(piperazin-1-yl)phenyl)-4-(3-(pyridin-3-yl)-1-(2,2,2-trifluoroethyl)-1H-pyrazol-4-yl)pyrimidin-2-amine]: the pIC50 was 7.88.

As to `c1ccc(Cn2cc(-c3ccnc(Nc4ccc(N5CCNCC5)cc4)n3)c(-c3cccnc3)n2)nc1` [Example 140, N-(4-(Piperazin-1-yl)phenyl)-4-(1-(pyridin-2-ylmethyl)-3-(pyridin-3-yl)-1H-pyrazol-4-yl)pyrimidin-2-amine], the pIC50 was 7.50.

`c1cncc(Cn2cc(-c3ccnc(Nc4ccc(N5CCNCC5)cc4)n3)c(-c3cccnc3)n2)c1` [Example 141, N-(4-(Piperazin-1-yl)phenyl)-4-(3-(pyr-3-yl)-1-(pyridin-3-ylmethyl)-1H-pyrazol-4-yl)pyrimidin-2-amine]: the pIC50 was 7.26.

Turning to `CCn1cc(-c2ccnc(Nc3ccc(OC4CNC4)cc3)n2)c(-c2cccnc2)n1` [Example 145, N-(4-(Azetidin-3-yloxy)phenyl)-4-(1-ethyl-3-(pyridin-3-yl)-1H-pyrazol-4-yl)pyrimidin-2-amine], the pIC50 is 7.79.

With `CCn1cc(-c2ccnc(Nc3ccc(N4CCC(N)CC4)cc3)n2)c(-c2cccnc2)n1` [Example 147, N-(4-(4-Aminopiperidin-1-yl)phenyl)-4-(1-ethyl-3-(pyridin-3-yl)-1H-pyrazol-4-yl)pyrimidin-2-amine], the pIC50 was 7.85.

As to `CCn1cc(-c2ccnc(Nc3cc(F)c(N4CCNCC4)c(F)c3)n2)c(-c2cccnc2)n1` [Example 153, N-(3,5-Difluoro-4-(piperazin-1-yl)phenyl)-4-(1-ethyl-3-(pyridin-3-yl)-1H-pyrazol-4-yl)pyrimidin-2-amine], the pIC50 was 8.19.

With `CCn1cc(-c2ccnc(Nc3ccc(N4CCNCC4)c(C)c3)n2)c(-c2cccnc2)n1` [Example 154, 4-(1-Ethyl-3-(pyridin-3-yl)-1H-pyrazol-4-yl)-N-(3-methyl-4-(piperazin-1-yl)phenyl)pyrimidin-2-amine], the negative-log IC50 (pIC50) is 8.15.

On to `N#Cc1ccccc1Cn1cc(-c2ccnc(Nc3ccc(N4CCNCC4)cc3)n2)c(-c2cccnc2)n1` [Example 157, 2-((4-(2-((4-(Piperazin-1-yl)phenyl)amino)pyrimidin-4-yl)-3-(pyridin-3-yl)-1H-pyrazol-1-yl)methyl)benzonitrile], for which the pIC50 was 7.71.

For the molecule `CCn1cc(-c2ccnc(Nc3cccc(N4CCNCC4)c3)n2)c(-c2cccnc2)n1` [Example 158, 4-(1-Ethyl-3-(pyridin-3-yl)-1H-pyrazol-4-yl)-N-(3-(piperazin-1-yl)phenyl)pyrimidin-2-amine], the pIC50 was 7.73.

On to `CCn1cc(-c2ccnc(Nc3ccc(CCN4CCNCC4)cc3)n2)c(-c2cccnc2)n1` [Example 159, 4-(1-Ethyl-3-(pyridin-3-yl)-1H-pyrazol-4-yl)-N-(4-(2-(piperazin-1-yl)ethyl)phenyl)-pyrimidin-2-amine], for which the pIC50 was 7.82.
